IC50 and MIC data for 15 molecules are collected here from US9592221B2, “Antibacterial agents: aryl myxopyronin derivatives” (priority 2012, dated 2017).

In experiment [1] the target is E. coli RNA polymerase σ^70 holoenzyme (Escherichia coli, UniProt P0A8T7+P0A8V2). The experiment is described as follows: Fluorescence-detected RNA polymerase assay, E. coli RNA polymerase. The experiment is classed as biochemical. Particulars: read-out: IC50 E. coli RNAP.
Experiment [2] deals with Acinetobacter baumannii ATCC 19606. The experiment is described as follows: MIC, spiral gradient endpoint assay, A. baumannii. The conditions noted are these: ATCC19606; Acinetobacter baumannii ATCC 19606. Format: cell-based.
The target in experiment [3] is M. tuberculosis RNA polymerase core enzyme, M. tuberculosis σ^A (Mycobacterium tuberculosis, UniProt P9WGY7+P9WGY9). The experiment is described as follows: Fluorescence-detected RNA polymerase assay, M. tuberculosis RNA polymerase. The experiment is classed as biochemical. Particulars: read-out: IC50 M. tuberculosis RNAP.
In experiment [4] the test system is Staphylococcus aureus ATCC 12600. Put plainly: MIC, spiral gradient endpoint assay, S. aureus ATCC 12600. The experiment is classed as cell-based. The conditions noted are these: ATCC12600; Staphylococcus aureus ATCC 12600.
Experiment [5] relates to Escherichia coli D21f2tolC. Put plainly: MIC, spiral gradient endpoint assay, E. coli D21f2tolC. The conditions noted are these: Escherichia coli, D21F2TOLC, read-out: MIC E. coli D21f2toIC. Format: cell-based.
Experiment [6] concerns Mycobacterium tuberculosis H37Rv. Put plainly: MIC, microplate Alamar Blue assay, M. tuberculosis. The experiment is classed as cell-based. (In general: Alamar Blue is a resazurin reagent that responds to reducing activity.)
For experiment [7], the system named is Francisella tularensis SCHU4. The experiment is described as follows: microbe, parasite or virus in culture. Format: cell-based. Particulars: Francisella tularensis, SCHU4, read-out: MIC F. tularensis SCHU4.
Experiment [8] concerns Burkholderia pseudomallei Human/Blood/OH/US/1994. The experiment is described as follows: microbe, parasite or virus in culture. Particulars: Burkholderia pseudomallei, read-out: MIC B. pseudomallei Human/Blood/OH. Format: cell-based.
Experiment [9] deals with Bacillus anthracis Vollum 1b. The experiment is described as follows: microbe, parasite or virus in culture. Format: cell-based. Particulars: Bacillus anthracis, VOLLUM1B, read-out: MIC B. anthracis Vollum-1b.
The next experiment concerns Brucella melitensis 16M. The experiment is described as follows: microbe, parasite or virus in culture. The experiment is classed as cell-based. The conditions noted are these: Brucella melitensis, 16M, read-out: MIC B. melitensis 16M.
Experiment [10] addresses S. aureus RNA polymerase core enzyme, S. aureus σ^A (Staphylococcus aureus, UniProt P47768+Q2G0N5). Put plainly: Fluorescence-detected RNA polymerase assay, S. aureus RNA polymerase. The experiment is classed as biochemical. The conditions noted are these: read-out: IC50 S. aureus RNAP.
The next experiment concerns Burkholderia mallei CHN7. The experiment is described as follows: microbe, parasite or virus in culture. Format: cell-based. The conditions noted are these: Burkholderia mallei, CHN7, read-out: MIC B. mallei CHN7.
A further experiment concerns Yersinia pestis C092. Put plainly: microbe, parasite or virus in culture. Format: cell-based. The conditions noted are these: Yersinia pestis, C092, read-out: MIC Y. pestis C092.

≈ marks a conversion by molar mass, not a printed value. A value given as a limit tells only on which side of the number the result lay.

M. tuberculosis RNA polymerase core enzyme, M. tuberculosis σ^A, sequence (P9WGI1 whole entry): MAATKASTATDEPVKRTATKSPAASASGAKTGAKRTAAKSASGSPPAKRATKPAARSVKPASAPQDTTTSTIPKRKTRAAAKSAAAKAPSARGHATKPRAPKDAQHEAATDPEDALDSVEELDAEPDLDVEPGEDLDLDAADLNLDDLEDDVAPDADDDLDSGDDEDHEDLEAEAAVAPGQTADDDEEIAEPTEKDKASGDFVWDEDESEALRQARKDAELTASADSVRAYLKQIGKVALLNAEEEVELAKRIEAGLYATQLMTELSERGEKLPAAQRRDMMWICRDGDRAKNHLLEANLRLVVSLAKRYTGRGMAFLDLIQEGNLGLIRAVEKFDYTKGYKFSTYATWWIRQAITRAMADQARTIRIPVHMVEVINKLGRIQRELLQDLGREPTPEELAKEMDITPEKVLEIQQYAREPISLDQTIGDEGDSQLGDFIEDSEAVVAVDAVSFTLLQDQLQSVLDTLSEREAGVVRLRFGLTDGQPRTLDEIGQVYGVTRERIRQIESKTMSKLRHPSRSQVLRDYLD
M. tuberculosis RNA polymerase core enzyme, M. tuberculosis σ^A, sequence (P9WGY5 whole entry, further chain): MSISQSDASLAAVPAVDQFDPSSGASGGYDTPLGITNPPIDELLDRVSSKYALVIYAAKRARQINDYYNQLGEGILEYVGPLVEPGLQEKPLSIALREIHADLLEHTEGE
M. tuberculosis RNA polymerase core enzyme, M. tuberculosis σ^A, sequence (P9WGY7 whole entry): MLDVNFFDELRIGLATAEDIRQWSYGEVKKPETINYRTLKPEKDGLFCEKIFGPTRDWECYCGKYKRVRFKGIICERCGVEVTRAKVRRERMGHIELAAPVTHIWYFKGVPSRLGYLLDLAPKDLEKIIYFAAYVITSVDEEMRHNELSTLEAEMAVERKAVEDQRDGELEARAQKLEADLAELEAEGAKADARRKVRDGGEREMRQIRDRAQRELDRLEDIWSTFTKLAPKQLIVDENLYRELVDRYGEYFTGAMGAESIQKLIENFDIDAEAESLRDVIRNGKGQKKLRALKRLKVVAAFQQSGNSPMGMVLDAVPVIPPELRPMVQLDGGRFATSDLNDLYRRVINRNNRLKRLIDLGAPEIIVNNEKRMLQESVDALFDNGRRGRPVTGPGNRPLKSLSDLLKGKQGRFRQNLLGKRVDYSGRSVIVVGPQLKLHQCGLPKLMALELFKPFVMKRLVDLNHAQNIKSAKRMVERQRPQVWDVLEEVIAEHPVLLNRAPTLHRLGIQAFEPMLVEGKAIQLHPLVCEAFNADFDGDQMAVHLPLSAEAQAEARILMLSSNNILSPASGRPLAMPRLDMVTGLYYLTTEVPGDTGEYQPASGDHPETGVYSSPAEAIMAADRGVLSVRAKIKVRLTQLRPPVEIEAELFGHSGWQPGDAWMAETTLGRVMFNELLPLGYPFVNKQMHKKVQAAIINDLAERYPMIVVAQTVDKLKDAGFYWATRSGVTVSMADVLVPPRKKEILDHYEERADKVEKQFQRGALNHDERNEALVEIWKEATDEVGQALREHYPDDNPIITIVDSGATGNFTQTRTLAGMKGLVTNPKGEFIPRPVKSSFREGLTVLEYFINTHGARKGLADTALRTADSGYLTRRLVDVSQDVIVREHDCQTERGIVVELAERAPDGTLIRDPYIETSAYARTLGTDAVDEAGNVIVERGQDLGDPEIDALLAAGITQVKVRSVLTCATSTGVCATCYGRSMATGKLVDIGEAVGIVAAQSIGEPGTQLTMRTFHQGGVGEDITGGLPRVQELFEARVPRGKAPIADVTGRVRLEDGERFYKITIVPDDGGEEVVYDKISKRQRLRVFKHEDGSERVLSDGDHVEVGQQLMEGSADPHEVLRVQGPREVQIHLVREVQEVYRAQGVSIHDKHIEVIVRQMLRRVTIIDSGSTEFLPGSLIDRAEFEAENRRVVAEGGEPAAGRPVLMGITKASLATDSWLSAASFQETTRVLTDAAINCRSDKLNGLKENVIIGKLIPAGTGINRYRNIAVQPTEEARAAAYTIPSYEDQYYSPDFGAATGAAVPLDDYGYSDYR
M. tuberculosis RNA polymerase core enzyme, M. tuberculosis σ^A, sequence (P9WGY9 whole entry): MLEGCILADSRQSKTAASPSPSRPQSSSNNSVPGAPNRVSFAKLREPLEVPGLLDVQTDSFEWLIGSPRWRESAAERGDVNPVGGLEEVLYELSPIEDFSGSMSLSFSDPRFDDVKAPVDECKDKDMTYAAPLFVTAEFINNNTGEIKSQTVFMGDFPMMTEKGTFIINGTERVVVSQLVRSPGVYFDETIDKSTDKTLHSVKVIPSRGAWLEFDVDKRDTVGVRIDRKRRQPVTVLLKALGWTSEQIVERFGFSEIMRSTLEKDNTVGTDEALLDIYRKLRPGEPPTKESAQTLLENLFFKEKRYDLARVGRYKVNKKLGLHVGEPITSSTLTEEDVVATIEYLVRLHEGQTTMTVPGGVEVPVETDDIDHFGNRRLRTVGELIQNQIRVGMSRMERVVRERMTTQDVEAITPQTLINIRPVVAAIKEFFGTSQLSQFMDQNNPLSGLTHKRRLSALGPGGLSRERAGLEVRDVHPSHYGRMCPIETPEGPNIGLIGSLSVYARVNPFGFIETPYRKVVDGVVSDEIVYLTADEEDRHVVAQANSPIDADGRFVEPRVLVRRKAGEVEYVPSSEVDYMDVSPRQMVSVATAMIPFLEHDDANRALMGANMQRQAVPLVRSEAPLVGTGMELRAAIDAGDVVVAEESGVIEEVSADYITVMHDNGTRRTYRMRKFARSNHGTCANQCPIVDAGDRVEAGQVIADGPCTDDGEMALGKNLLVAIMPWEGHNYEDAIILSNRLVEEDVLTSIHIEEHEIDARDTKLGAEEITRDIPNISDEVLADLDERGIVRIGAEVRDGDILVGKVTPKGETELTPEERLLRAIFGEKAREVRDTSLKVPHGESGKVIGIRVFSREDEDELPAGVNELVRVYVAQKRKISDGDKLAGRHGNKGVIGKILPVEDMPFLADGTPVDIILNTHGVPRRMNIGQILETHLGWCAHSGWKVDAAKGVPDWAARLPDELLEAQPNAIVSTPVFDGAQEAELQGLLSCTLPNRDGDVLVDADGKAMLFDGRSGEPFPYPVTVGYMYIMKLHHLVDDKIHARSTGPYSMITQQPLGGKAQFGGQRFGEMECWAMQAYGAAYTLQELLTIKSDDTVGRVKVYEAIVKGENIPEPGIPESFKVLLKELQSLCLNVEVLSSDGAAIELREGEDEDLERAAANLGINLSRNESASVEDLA
M. tuberculosis RNA polymerase core enzyme, M. tuberculosis σ^A, sequence (P9WGZ1 whole entry, further chain): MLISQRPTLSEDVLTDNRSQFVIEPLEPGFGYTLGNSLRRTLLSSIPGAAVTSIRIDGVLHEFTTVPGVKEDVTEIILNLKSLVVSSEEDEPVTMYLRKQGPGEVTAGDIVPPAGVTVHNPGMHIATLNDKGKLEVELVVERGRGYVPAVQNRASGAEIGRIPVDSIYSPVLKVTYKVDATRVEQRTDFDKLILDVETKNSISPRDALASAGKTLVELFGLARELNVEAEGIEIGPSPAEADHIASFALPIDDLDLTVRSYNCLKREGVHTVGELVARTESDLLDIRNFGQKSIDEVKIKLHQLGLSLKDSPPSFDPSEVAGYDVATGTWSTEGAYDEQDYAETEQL

With `COCCCc1ccc(C=C(C)C(=O)c2c(O)cc(C(C)CC/C=C/NC(=O)OC)oc2=O)s1` (mixture of isomers) [APY100, methyl ((1E)-5-(4-hydroxy-3-(3-(5-(3-methoxypropyl)thiophen-2-yl)-2-methylacryloyl)-2-oxo-2H-pyran-6-yl)hex-1-en-1-yl)carbamate], the IC50 (in general, the concentration needed to halve the response being measured) in experiment [1] came to 60 nM; in [3], 1000 nM. The MIC was over 40 µg/mL in experiment [2], over 40 µg/mL in [4] and 1 µg/mL in experiment [5].

For `CCCOc1ccc(C=C(C)C(=O)c2c(O)cc(C(C)CC/C=C/NC(=O)OC)oc2=O)s1` (mixture of isomers) [APY103, methyl ((1E)-5-(4-hydroxy-3-(2-methyl-3-(5-propoxythiophen-2-yl)acryloyl)-2-oxo-2H-pyran-6-yl)hex-1-en-1-yl)carbamate], the IC50 in [1] and in [3] was 20 nM each time. The MIC is over 40 µg/mL in experiment [2], 30 µg/mL in experiment [6], 2 µg/mL in [4] and 0.4 µg/mL in experiment [5].

`CCCCc1cc(C)c(C=C(C)C(=O)c2c(O)cc(C(C)CC/C=C/NC(=O)OC)oc2=O)s1` (mixture of isomers) [APY75, methyl (E)-5-(3-((E/Z)-3-(5-butyl-3-methylthiophen-2-yl)-2-methylacryloyl)-4-hydroxy-2-oxo-2H-pyran-6-yl)hex-1-enylcarbamate]: the MIC in experiment [7] amounted to 10 µg/mL; in experiment [2] it was 4 µg/mL; in experiment [8], 6 µg/mL; in experiment [9], 0.8 µg/mL; in experiment [6], 30 µg/mL; in the experiment with Brucella melitensis 16M it was 3 µg/mL. Further, the MIC in the experiment on Burkholderia mallei CHN7 worked out at 6 µg/mL; in [4], 0.3 µg/mL; in experiment [5], 0.1 µg/mL. In addition, the results for the concentration for half-maximal inhibition (IC50) in experiment [1], in experiment [10] and in experiment [3] were 9 nM, 80 nM and 60 nM, respectively.

Turning to `CCOc1ccc(C=C(C)C(=O)c2c(O)cc(C(C)CC/C=C/NC(=O)OC)oc2=O)s1` (mixture of isomers) [APY102, methyl ((1E)-5-(3-(3-(5-ethoxythiophen-2-yl)-2-methylacryloyl)-4-hydroxy-2-oxo-2H-pyran-6-yl)hex-1-en-1-yl)carbamate], the IC50 in experiment [1] worked out at 200 nM; in experiment [3], 500 nM. The MIC in experiment [2] was over 40 µg/mL; in [6] it was 30 µg/mL; in [4], 10 µg/mL; in [5], 1 µg/mL.

For the molecule `COC(=O)N/C=C/CCC(C)c1cc(O)c(C(=O)C(C)=Cc2cc3cc(CCC(C)C)ccc3n2C)c(=O)o1` (mixture of isomers) [APY105, methyl ((1E)-5-(4-hydroxy-3-(3-(5-isopentyl-1-methyl-1H-indol-2-yl)-2-methylacryloyl)-2-oxo-2H-pyran-6-yl)hex-1-en-1-yl)carbamate], the IC50 was 40 nM in experiment [1] and 5000 nM in experiment [3]. In addition, the MIC in [2] was over 40 µg/mL; in experiment [4], over 40 µg/mL; in experiment [5], 2 µg/mL.

Regarding `CCCCc1ccc(C=C(C)C(=O)c2c(O)cc(C(C)CC/C=C/NC(=O)OC)oc2=O)c(C)c1` (mixture of isomers) [APY87, methyl ((1E)-5-(3-(3-(4-butyl-2-methylphenyl)-2-methylacryloyl)-4-hydroxy-2-oxo-2H-pyran-6-yl)hex-1-en-1-yl)carbamate], the IC50 was found to be 10 nM in [1], 70 nM in [10] and 30 nM in experiment [3]. For the same molecule, the MIC is over 40 µg/mL in experiment [2], over 50 µg/mL in [6], 1 µg/mL in experiment [4] and 0.2 µg/mL in [5].

With `COC(=O)N/C=C/CCC(C)c1cc(O)c(C(=O)C(C)=Cc2ccc(CCCO)s2)c(=O)o1` (mixture of isomers) [APY94, methyl ((1E)-5-(4-hydroxy-3-(3-(5-(3-hydroxypropyl)thiophen-2-yl)-2-methylacryloyl)-2-oxo-2H-pyran-6-yl)hex-1-en-1-yl)carbamate], the IC50 in experiment [1] and in [3] was over 6000 nM in each case. Besides, the figures for the MIC in experiment [2], in experiment [4] and in experiment [5] were over 40 µg/mL, over 40 µg/mL and 3 µg/mL, respectively.

On to `COC(=O)N/C=C/CCC(C)c1cc(O)c(C(=O)C(C)=Cc2ccc(CCCCC(F)(F)F)s2)c(=O)o1` (mixture of isomers) [APY98, methyl ((1E)-5-(4-hydroxy-3-(2-methyl-3-(5-(5,5,5-trifluoropentyl)thiophen-2-yl)acryloyl)-2-oxo-2H-pyran-6-yl)hex-1-en-1-yl)carbamate], for which the IC50 turned out to be 6 nM in [1] and 40 nM in experiment [3]. Besides, the MIC turned out to be 20 µg/mL in experiment [2], 50 µg/mL in experiment [6], 1 µg/mL in experiment [4] and 0.1 µg/mL in experiment [5].

Take `CCCCc1ccc2c(c1)cc(C=C(C)C(=O)c1c(O)cc(C(C)CC/C=C/NC(=O)OC)oc1=O)n2C` (mixture of isomers) [APY104, methyl ((1E)-5-(3-(3-(5-butyl-1-methyl-1H-indol-2-yl)-2-methylacryloyl)-4-hydroxy-2-oxo-2H-pyran-6-yl)hex-1-en-1-yl)carbamate]: the values for the IC50 in experiment [1] and in [3] were 8 nM and 200 nM, respectively. In addition, the MIC in [2] is 9 µg/mL; in experiment [6], over 50 µg/mL; in [4], 5 µg/mL; in experiment [5], 0.1 µg/mL.

`COCc1ccc(C=C(C)C(=O)c2c(O)cc(C(C)CC/C=C/NC(=O)OC)oc2=O)s1` (mixture of isomers) [APY106, methyl ((1E)-5-(4-hydroxy-3-(3-(5-(methoxymethyl)thiophen-2-yl)-2-methylacryloyl)-2-oxo-2H-pyran-6-yl)hex-1-en-1-yl)carbamate]: the results for the IC50 in experiment [1] and in experiment [3] were 500 nM and 4000 nM, respectively. The results for the MIC in experiment [2], in experiment [4] and in experiment [5] were over 40 µg/mL, over 40 µg/mL and 3 µg/mL, respectively.

Consider `CCCCc1ccc2cc(C=C(C)C(=O)c3c(O)cc(C(C)CC/C=C/NC(=O)OC)oc3=O)oc2c1` (mixture of isomers) [APY84, methyl ((1E)-5-(3-(3-(6-butylbenzofuran-2-yl)-2-methylacryloyl)-4-hydroxy-2-oxo-2H-pyran-6-yl)hex-1-en-1-yl)carbamate], for which the IC50 in experiment [1] came to 2 nM; in experiment [10], 60 nM; in experiment [3], 20 nM. Moreover, the MIC is over 40 µg/mL in [2], 30 µg/mL in experiment [6], 3 µg/mL in [4] and 0.1 µg/mL in [5].

Take `COC(=O)N/C=C/CCC(C)c1cc(O)c(C(=O)C(C)=Cc2ccc(CCCCCF)s2)c(=O)o1` (stereo not drawn) [APY97, methyl ((1E)-5-(3-(3-(5-(5-fluoropentyl)thiophen-2-yl)-2-methylacryloyl)-4-hydroxy-2-oxo-2H-pyran-6-yl)hex-1-en-1-yl)carbamate]: the IC50 in experiment [1] is 20 nM; in [10], 400 nM. Further, the MIC in [2] was over 40 µg/mL; in experiment [6] it was over 50 µg/mL; in experiment [4] it was 2 µg/mL (≈ 3.96 µM); in experiment [5] it was 0.1 µg/mL (≈ 0.198 µM).

With `CCCCc1ccc2cc(C=C(C)C(=O)c3c(O)cc(C(C)CC/C=C/NC(=O)OC)oc3=O)sc2c1` (mixture of isomers) [APY86, methyl ((1E)-5-(3-(3-(6-butylbenzo[b]thiophen-2-yl)-2-methylacryloyl)-4-hydroxy-2-oxo-2H-pyran-6-yl)hex-1-en-1-yl)carbamate], the IC50 in experiment [1] came out at 20 nM; in experiment [10], 300 nM; in experiment [3], 1000 nM. In addition, the MIC in [2] was over 40 µg/mL; in experiment [6], over 50 µg/mL; in experiment [4] it was over 40 µg/mL; in [5] it was 0.2 µg/mL.

As for `COC(=O)N/C=C/CCC(C)c1cc(O)c(C(=O)C(C)=Cc2ccc(OCCC(F)(F)F)s2)c(=O)o1` (mixture of isomers) [APY139, methyl ((1E)-5-(4-hydroxy-3-(2-methyl-3-(5-(3,3,3-trifluoropropoxy)thiophen-2-yl)acryloyl)-2-oxo-2H-pyran-6-yl)hex-1-en-1-yl)carbamate], the MIC in [7] is over 50 µg/mL; in experiment [2], over 40 µg/mL; in experiment [8], over 50 µg/mL; in experiment [9], 6 µg/mL; in [6], 6 µg/mL; in the experiment with Brucella melitensis 16M, 10 µg/mL. The MIC in the experiment with Yersinia pestis C092 turned out to be 10 µg/mL; in the experiment on Burkholderia mallei CHN7, 50 µg/mL; in [4], 2 µg/mL; in experiment [5] it was 0.2 µg/mL. Also, the IC50 in experiment [1] was 30 nM.

Consider `COC(=O)N/C=C/CCC(C)c1cc(O)c(C(=O)C(C)=Cc2ccc(OC)s2)c(=O)o1` (mixture of isomers) [APY101, methyl ((1E)-5-(4-hydroxy-3-(3-(5-methoxythiophen-2-yl)-2-methylacryloyl)-2-oxo-2H-pyran-6-yl)hex-1-en-1-yl)carbamate], for which the half-maximal inhibitory concentration (IC50) in experiment [1] and in experiment [3] was over 6000 nM in each case. Also, the MIC in experiment [2] was over 40 µg/mL; in [4], over 40 µg/mL; in experiment [5], 3 µg/mL.
